Laboratory results from US9241885B2, “Oral care compositions comprising increased bioavailable levels of quaternary ammonium antimicrobials” (THE PROCTER & GAMBLE COMPANY, priority 2004, dated 2016).

Assay: Disk Retention Assay (DRA) of CPC bioavailability in mouthrinse formulations
Assay type: in vitro ADME
Settings: mouthrinse formulation
Text: In evaluating bioavailability and biological activity of quaternary ammonium antimicrobials in mouthwash formulations, an in vitro Disk Retention Assay (DRA) can be used to estimate drug bioavailability as well as an ex vivo Plaque Glycolysis and Regrowth Model (PGRM) to assess biological activity (S. J. Hunter-Rinderle, et al., “Evaluation of Cetylpyridinium Chloride-Containing Mouthwashes Using In Vitro Disk Retention and Ex Vivo Plaque Glycolysis Methods,” J. Clin. Den., 1997, 8:107-113). These assays are recommended for use in the proposed OTC monograph (Federal Register Vol. 68, No. 103 Part 356, “Oral Health Care Drug Products For Over-The-Counter Human Use; Antigingivitis/Antiplaque Drug Products; Establishment of a Monograph: Proposed Rules”).
This method is designed as a performance assay to analyze mouthrinse formulations containing from about 0.03% to about 0.1% CPC to quantitatively determine the “free” (“unbound”) or “bioavailable” level of CPC needed for clinical efficacy. The DRA assay measures the amount of CPC “binding” to standardized cellulose filter disks during filtration of an undiluted mouthrinse sample. The “bioavailable” CPC binds to the hydroxyl groups on the cellulose fiber during filtration while CPC, which has been rendered “non-bioavailable” (or “bound”)” through interactions with mouthrinse components, simply passes through the filter paper, i.e., the positive charge on the compound is no longer available for binding to the negatively charged cellulose disks. In this way, the DRA test provides an estimate of the amount of CPC available for binding to bacteria and mucosal surfaces during use of the mouthrinse. DRA measurements of CPC availability have been positively correlated to the results of in vitro microbiological assays and in vivo germ kill tests. Historically, cellulose fibers have been used in other applications to similarly monitor biological activity of drug actives (“Dairy Products” in Official Methods of Analysis of the Association of […] Analytical Chemists. 13th ed., 1980, Chapter 16:256).
“Bioavailable” CPC is the amount of CPC bound to or adsorbed to cellulose disks. This is determined by measuring the differences in CPC concentration in the mouthrinse before and after exposure to standardized cellulose disks. The method has been validated and shown to perform with acceptable accuracy, precision, and selectivity. A more detailed description of the test is provided below.
For example, a formulation comprising 0.05% CPC at 72% bioavailability would provide 360 ppm CPC. […] Determination of CPC bioavailability in a finished product is important to product performance as it readily defines the amount (concentration) of active available for deposition at the site of action. Because the positively charged (cationic) hydrophilic region is critical to antimicrobial activity, any formulation component that diminishes the activity of this cationic group or that competes with the group may inactivate the product.
Desirably, a formulation containing 0.05% CPC would have at least about 65% bioavailability to deliver at least about 324 ppm bioavailable CPC. A formulation containing a lower level of CPC such as 0.04% would need to have at least about 81% bioavailability to deliver the minimum required level of bioavailable CPC for efficacy.

Question: For `CCCCCCCCCCCCCCCC[n+]1ccccc1` [CPC, cetylpyridinium chloride], which “% bioavailable CPC” value (0.0 % Poloxamer) is on record?
Answer: 94.24%

Question: What about the “% bioavailable CPC” value (0.05 % Poloxamer) of the same compound?
Answer: 84.42%

Question: And the “% bioavailable CPC” value (0.1 % Poloxamer)?
Answer: 61.14%

Question: What about the “% bioavailable CPC” value (0.15 % Poloxamer) of the same compound?
Answer: 57.49%

Question: What about the “% bioavailable CPC” value (0.2 % Poloxamer) of the same compound?
Answer: 52.96%

Question: What about the “% bioavailable CPC” value (0.25 % Poloxamer) of the same compound?
Answer: 53.14%

Question: And the “% bioavailable CPC” value (0.5 % Poloxamer)?
Answer: 42.63%

Question: What about the “% bioavailable CPC” value (0.75 % Poloxamer) of the same compound?
Answer: 38.4%

Question: What about the “% bioavailable CPC” value (1.00 % Poloxamer) of the same compound?
Answer: 35.09%

Question: What about the “bioavailability of CPC” value (level of 0.1% surfactant (Poloxamer) or higher) of the same compound?
Answer: unacceptable bioavailability
